These are literature values, as cited in patent US9340307B2, “Stable laquinimod preparations” (priority 2007, dated 2016).

This data set concerns acute experimental autoimmune encephalomyelitis (aEAE) model. As to conditions: U.S. Pat. No. 6,077,851.

For `CCN(C(=O)c1c(O)c2c(Cl)cccc2n(C)c1=O)c1ccccc1` [Laquinimod, N-ethyl-N-phenyl-1,2-dihydro-4-hydroxy-5-chloro-1-methyl-2-oxoquinoline-3-carboxamide], the “effectiveness in the aEAE model” value was “effective”.
